Values of other authors as cited in patent publication US12606521B2, “Methods of treating cancer” (Institute For Cancer Research, priority 2020, dated 2026).

System: cancer cells
Settings: combination with decitabine

Compound: Cc1cc(C(C#N)c2ccc(Cl)cc2)c(Cl)cc1NC(=O)c1cc(I)cc(I)c1O (stereo not shown) [closantel]
- Interaction with decitabine in killing cancer cells: synergizes with decitabine
